Read-outs that look alike come from different tables or passages of the source.

For data set [1], the system named is GFP positive (IL12 negative) T cells. Kind of data set: In vivo T cell phenotype: GFP positive cells co-transferred with CD19 CAR-IL12 cells, FACS markers, plasma IL12. Further details: species or system NSG mice. On the procedure: IL12-transduced T cells have a Th1-skewed phenotype in vitro, i.e. produce IFN gamma). To assess phenotypic effects of IL12 in vivo, GFP positive (IL12 negative) cells were generated and co-transferred with CD19 CAR-IL12 transduced cells or CD19 alone or IL12 alone cells. Nalm 6 tumor bearing NSG mice were injected with 8 million GFP positive cells, in addition to CD19 CAR-IL12 cells or their corresponding monocistronic constructs. The groups utilized in this study included, 1e^6 empty vector expressing T cells plus 8e^6 GFP positive cells, 1e^6 OT-001407 plus 8e^6 GFP positive cells, 0.1 e^6 OT-001356 plus 8e^6 GFP positive cells, 1e^6 OT-001356 plus 8e^6 GFP positive cells, 0.1e^6 OT-001357 plus 8e^6 GFP positive cells, 1e^6 OT-001357 plus 8e^6 GFP positive cells, and 1e^6 OT-001442 plus 8e^6 GFP positive cells.
Animals were bled on day 3, day 5, day 7 and euthanized at day 12. Blood, spleen, and bone marrow were collected for analysis of T cell number and CD8 frequency. Phenotypic T cell markers such as Granzyme, Tbet, pSTAT4, CD25, and ICOS were analyzed in the GFP positive cells using FACS. […] By day 12, post transfer, the levels of Granzyme B, Tbet, pSTAT4, CD25 and ICOS levels increased in the blood of the mice injected with the CD19 CAR-IL12 tandem constructs. ANOVA test for significance was p<0.0001 for all markers. […]

A further data set relates to HCT-116 cells. The following applies: 24 hours; for IL15Ra mean fluorescent intensity (MFI): HCT-116 cells stably expressing OT-001111. How it is done: HCT-116 cells stably expressing the OT-001111 (OT-IL15-009) cassette were incubated with 0 to 250 μM TMP ligand (or DMSO) for 24 hours. Membrane bound IL15-IL15Ra levels were assessed using flow cytometry detection of IL15Ra.

The conditions of data set [2]: human, cited from earlier work.

As to “IL12: heterodimeric protein of two subunits (p35, p40); cytokine”, the “EC 50 of IL12 in plasma” value in data set [1] (mouse, in vivo) is about 0.1 ng/mL. Besides, the “level of IL12 sufficient to induce phenotypic changes” value in data set [1] (plasma, markers and IFN gamma) worked out at 200 pg/mL.

With `COc1cc(Cc2cnc(N)nc2N)cc(OC)c1OC` [TMP, Trimethoprim], the “TMP concentration resulting in IL15Ra MFI levels above DMSO controls” value with HCT-116 cells (HCT-116 stably expressing OT-001111) was 0.0032 µM. For the same molecule, the “IL15Ra mean fluorescent intensity (MFI)” value is given as 304 with HCT-116 cells (TMP 0.00064 μM); 469 with HCT-116 cells (TMP 0.0032 μM); 666 with HCT-116 cells (TMP 0.016 μM); 769 in the data set on HCT-116 cells (TMP 0.08 μM); 1001 in the data set with HCT-116 cells (TMP 0.4 μM); 1104 with HCT-116 cells (TMP 2 μM). Further, the “IL15Ra mean fluorescent intensity (MFI)” value in the data set on HCT-116 cells (TMP 10 μM) came to 1204; with HCT-116 cells (TMP 50 μM), 1344; in the data set with HCT-116 cells (TMP 250 μM) it was 1576. In addition, the “TMP maximum peak levels” value in data set [2] (150 mg/m2 IV every 8 hours) is 17 to 34 µM. Also, in data set [2] (80-160 mg BID PO), the “TMP steady state levels” value is 1 to 6 µM.

The values are drawn from patent US20230092895A1, “TANDEM CD19 CAR-BASED COMPOSITIONS AND METHODS FOR IMMUNOTHERAPY” (Obsidian Therapeutics, Inc., priority 2019, published 2023).
